The results in this text go back to patent publication US8895561B2, “Compounds and methods for treating candidiasis and aspergillus infections” (Cellceutix Corporation, priority 2012, dated 2014).

For one assay, the system named is E. coli 25922. As to the kind of experiment: Bacterial MIC, broth microdilution, CLSI. It counts as cell-based. The conditions noted are these: Escherichia coli; E. coli 25922. The procedure, abridged: (§1)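 MICs by broth microdilution under standard CLSI conditions against E. coli 25922, S. aureus 27660, E. faecalis 29212, P. aeruginosa 10145 and K. pneumoniae 13883.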
For orientation: Dilution methods test growth across graded concentrations, often in twofold steps.

In a further assay the test system is E. faecalis 29212. As to the kind of experiment: Bacterial MIC, broth microdilution, CLSI. Type of assay: cell-based. The conditions noted are these: Enterococcus faecalis; E. faecalis 29212. The essentials: as §1
Another assay deals with K. pneumoniae 13883. Kind of assay: Bacterial MIC, broth microdilution, CLSI. Type of assay: cell-based. The conditions noted are these: Klebsiella pneumoniae. The essentials: as §1
Another assay concerns P. aeruginosa 10145. Kind of assay: Bacterial MIC, broth microdilution, CLSI. It counts as cell-based. Conditions: Pseudomonas aeruginosa; P. aeruginosa 10145. The essentials:
as §1

The test system of another assay is S. aureus 27660. Kind of assay: Bacterial MIC, broth microdilution, CLSI. The conditions noted are these: Staphylococcus aureus; S. aureus 27660. It counts as cell-based. The procedure, abridged: as §1
The subject of assay [1] is human transformed liver HepG2 cells. As to the kind of experiment: Cytotoxicity, MTS viability assay. Type of assay: cell-based. Conditions: Homo sapiens, HepG2; cytotoxicity. The essentials:
(§2)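 Cytotoxicity in mouse 3T3 fibroblasts and human HepG2 liver cells measured by MTS viability assay. Values reported as EC50.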
In general terms: Tetrazolium dyes change colour on reduction, which living cells bring about.

The next assay has as its system mouse 3T3 fibroblasts. Kind of assay: Cytotoxicity, MTS viability assay. Type of assay: cell-based. Conditions: Mus musculus, NIH3T3; cytotoxicity. The essentials:
as §2

The test system of another assay is A. viscosis. As to the kind of experiment: Commensal bacteria MIC, broth microdilution. It counts as cell-based. The procedure: (§3) Bacterial MICs were determined using a broth microdilution assay under standard
(§4) CLSI conditions Bacteria strains: clinical isolates; yeast strains: C. dubliniensis (NCPF3949), C. glabrata (ATCC 90030), C. krusei (ATCC 6258), C. parapsilosis (ATCC 22019), and C. tropicalis (ATCC 750). Cytotoxicity (EC50) was determined against mouse 3T3 fibroblasts, human transformed liver HepG2 cells, and human oral keratinocyte cell line, OKF6/TERT using an MTS viability assay.

The next assay deals with S. salivarius. As to the kind of experiment: Commensal bacteria MIC, broth microdilution. Type of assay: cell-based. The conditions noted are these: Streptococcus salivarius. The procedure:
as §3, §4

The subject of assay [2] is C. albicans GDH2346. Kind of assay: Membrane permeabilization, PI staining and flow cytometry. It counts as cell-based. The conditions noted are these: 32 μg/mL, 5-minute treatment. Here is the method: (A) C. albicans GDH2346 was treated with Compound 100 at the concentrations indicated ([…]) for 30 minutes, followed by staining with PI and quantification by flow cytometry. Ethanol treatment was used to establish 100% uptake. (B) Cells were treated with Compound 100 at 32 μg/mL for the times indicated. To determine whether the compounds act at the membrane, like many host defense proteins, or intracellularly like histatins, the ability of Compound 100 to cause membrane permeability was assessed. Dose-dependent membrane permeabilization of Candida, as shown by cellular accumulation of PI, was evident within 30 minutes at 8 to 32 μg/mL Compound 100 concentrations (see FIG. 3A). Influx was rapid, where >75% of cells were permeabilized after a 5-minute treatment with Compound 100 at 32 μg/mL (see FIG. 3B).

The test system of assay [3] is C. albicans GDH2346. Kind of assay: Time kill. Type of assay: cell-based. The conditions noted are these: FIGS. 6A and 6B. Here is the method: Time kills were performed in the same manner as IC50s. At each time point yeast were removed, diluted as necessary and plated on YPD agar to determine viable CFUs.
The next assay deals with C. albicans. As to the kind of experiment: Mouse Candida sepsis model, kidney burden. Type of assay: in vivo. Conditions: neutropenic mice, IV 1 hour after infection, kidneys at 24 hours. The procedure:
Mice were made neutropenic with i.p. injections of cyclophosphamide (150 mg/kg in 10 mL/kg) at 4 and 1 day before inoculation. Each animal was then inoculated by injecting 0.1 mL of inoculum of C. albicans in a tail vein. The standard was administered orally and the test compounds by IV 1 hour after infection. The kidneys were collected from four mice in Group 1 at 1 hour after infection and from the remaining mice in the study at 24 hours after infection. Kidneys were combined in a sterile tube. An aliquot of sterile PBS were added to each tube and the contents homogenized with a tissue homogenizer. Serial dilutions of the tissue homogenates were conducted, 0.1 mL aliquots were spread on SDA plates and the plates incubated at 35° C. overnight. The CFU/kidneys were determined from colony counts. One-way ANOVA with Bonferroni Multiple Comparisons Test was performed using GraphPad InStat version 3.00 for Windows 95, GraphPad Software, San Diego Calif. USA.

Structures are written as SMILES. Converted amounts (≈) assume the structure as drawn.

By EC50 is commonly meant the concentration giving half of the maximal effect. The low end stands for greater potency, the high end for weaker potency. What is called IC50 is the concentration at which inhibition is half-maximal. Low readings indicate higher potency, high ones lower potency. As usually defined, the MIC is the smallest concentration in the dilution series that meets the test's criterion for growth inhibition. High values mean a less susceptible organism, low ones a more susceptible organism. Turning to `NCCSc1cc(SCCN)c(C(F)(F)F)cc1NC(=O)c1cc(C(=O)Nc2cc(C(F)(F)F)c(SCCN)cc2SCCN)ncn1` [Compound 100], the EC50 with E. coli 25922 was found to be 1.56 µg/mL (≈ 2.07 µM); with E. faecalis 29212, 0.78 µg/mL (≈ 1.03 µM); with K. pneumoniae 13883 it was 1.56 µg/mL (≈ 2.07 µM); with P. aeruginosa 10145 it was 3.13 µg/mL (≈ 4.15 µM); in the assay on S. aureus 27660, 0.78 µg/mL (≈ 1.03 µM). Besides, the IC50 in [1] is above 1000 µM; with mouse 3T3 fibroblasts, 439 µM. Besides, the MIC in the assay on A. viscosis and in the assay on S. salivarius was above 64 µg/mL each time. Also, the “cells permeabilized (PI uptake)” value in the assay on C. albicans GDH2346 [2] is reported as above 75%. Besides, the killing kinetics entry with C. albicans GDH2346 [3] is “cidal activity with rapid killing kinetics”.

As for `N=C(N)N1CCN(c2ccc(-c3cc(-c4ccc(N5CCN(C(=N)N)CC5)cc4)ncn3)cc2)CC1` [Compound 136], the EC50 is above 50 µg/mL with E. coli 25922; 0.098 µg/mL (≈ 0.202 µM) in the assay with E. faecalis 29212; 50 µg/mL (≈ 103 µM) with K. pneumoniae 13883; 50 µg/mL (≈ 103 µM) in the assay on P. aeruginosa 10145; 0.39 µg/mL (≈ 0.805 µM) in the assay on S. aureus 27660. The results for the IC50 (in [1]; in the assay with mouse 3T3 fibroblasts) were 453 µM and 311 µM, respectively. Moreover, the MIC with A. viscosis came to 4 µg/mL (≈ 8.25 µM); in the assay on S. salivarius, 16 µg/mL (≈ 33 µM).

For `NCCCOc1cc(-c2cn(-c3cc(OCCCN)cc(OCCCN)c3)nn2)cc(-c2cn(-c3cc(OCCCN)cc(OCCCN)c3)nn2)c1` [Compound 137], the EC50 was 50 µg/mL (≈ 68.5 µM) in the assay with E. coli 25922; 25 µg/mL (≈ 34.3 µM) with E. faecalis 29212; above 50 µg/mL in the assay on K. pneumoniae 13883; 50 µg/mL (≈ 68.5 µM) in the assay on P. aeruginosa 10145; 25 µg/mL (≈ 34.3 µM) with S. aureus 27660. Also, the IC50 in [1] was 182 µM; in the assay on mouse 3T3 fibroblasts, 83 µM. Besides, the MIC against A. viscosis and in the assay with S. salivarius was above 64 µg/mL in each case.

Turning to `NCCCOc1cc(OCCCN)cc(-c2ccc3c(c2)c2cc(-c4cc(OCCCN)cc(OCCCN)c4)ccc2n3CCCN)c1` [Compound 135], the EC50 is 6.25 µg/mL (≈ 9.34 µM) in the assay with E. coli 25922; 12.5 µg/mL (≈ 18.7 µM) with E. faecalis 29212; 12.5 µg/mL (≈ 18.7 µM) with K. pneumoniae 13883; above 50 µg/mL in the assay on P. aeruginosa 10145; 12.5 µg/mL (≈ 18.7 µM) in the assay on S. aureus 27660. Besides, the IC50 in assay [1] was determined as 885 µM; with mouse 3T3 fibroblasts, 436 µM. In addition, the MIC in the assay with A. viscosis and in the assay with S. salivarius was above 64 µg/mL throughout. In addition, in the assay with C. albicans GDH2346 [3], the killing kinetics result is “cidal activity with rapid killing kinetics”. Further, the “reductions in tissue burden from treatment onset” value with C. albicans is listed as at least 1.5 log10.
